Reference: ChEMBL document CHEMBL4382195, “Discovery of Novel Topoisomerase II Inhibitors by Medicinal Chemistry Approaches” (J Med Chem, 2018)

Experiments:
MDA-MB-231 = assay: Antiproliferative activity against human MDA-MB-231 cells after 24 hrs by MTT assay; type: functional, cell-based; settings: MDA-MB-231, 24 h
MCF7 = assay: Antiproliferative activity against human MCF7 cells after 24 hrs by MTT assay; type: functional, cell-based; settings: MCF7, 24 h
DNA topoisomerase 2-beta = DNA topoisomerase 2-beta (Homo sapiens, UniProt Q02880); assay: Poison activity at recombinant human topoisomerase 2beta using pBR322 plasmid as substrate after 30 mins by ethidium bromide staining based agarose gel electrophoresis
[1] = test system: Panel NCI-60 (60 carcinoma cell lines); assay: Antiproliferative activity against human NCI60 cells after 48 hrs by SRB assay; type: functional
[2] = biological target: DNA topoisomerase 2-alpha (Homo sapiens, UniProt P11388); assay: Inhibition of recombinant human topoisomerase 2alpha using supercoiled pNO1 plasmid as substrate after 30 mins by SYBR-GOLD staining based fluorimetric analysis
Chain of DNA topoisomerase 2-alpha (P11388 whole entry): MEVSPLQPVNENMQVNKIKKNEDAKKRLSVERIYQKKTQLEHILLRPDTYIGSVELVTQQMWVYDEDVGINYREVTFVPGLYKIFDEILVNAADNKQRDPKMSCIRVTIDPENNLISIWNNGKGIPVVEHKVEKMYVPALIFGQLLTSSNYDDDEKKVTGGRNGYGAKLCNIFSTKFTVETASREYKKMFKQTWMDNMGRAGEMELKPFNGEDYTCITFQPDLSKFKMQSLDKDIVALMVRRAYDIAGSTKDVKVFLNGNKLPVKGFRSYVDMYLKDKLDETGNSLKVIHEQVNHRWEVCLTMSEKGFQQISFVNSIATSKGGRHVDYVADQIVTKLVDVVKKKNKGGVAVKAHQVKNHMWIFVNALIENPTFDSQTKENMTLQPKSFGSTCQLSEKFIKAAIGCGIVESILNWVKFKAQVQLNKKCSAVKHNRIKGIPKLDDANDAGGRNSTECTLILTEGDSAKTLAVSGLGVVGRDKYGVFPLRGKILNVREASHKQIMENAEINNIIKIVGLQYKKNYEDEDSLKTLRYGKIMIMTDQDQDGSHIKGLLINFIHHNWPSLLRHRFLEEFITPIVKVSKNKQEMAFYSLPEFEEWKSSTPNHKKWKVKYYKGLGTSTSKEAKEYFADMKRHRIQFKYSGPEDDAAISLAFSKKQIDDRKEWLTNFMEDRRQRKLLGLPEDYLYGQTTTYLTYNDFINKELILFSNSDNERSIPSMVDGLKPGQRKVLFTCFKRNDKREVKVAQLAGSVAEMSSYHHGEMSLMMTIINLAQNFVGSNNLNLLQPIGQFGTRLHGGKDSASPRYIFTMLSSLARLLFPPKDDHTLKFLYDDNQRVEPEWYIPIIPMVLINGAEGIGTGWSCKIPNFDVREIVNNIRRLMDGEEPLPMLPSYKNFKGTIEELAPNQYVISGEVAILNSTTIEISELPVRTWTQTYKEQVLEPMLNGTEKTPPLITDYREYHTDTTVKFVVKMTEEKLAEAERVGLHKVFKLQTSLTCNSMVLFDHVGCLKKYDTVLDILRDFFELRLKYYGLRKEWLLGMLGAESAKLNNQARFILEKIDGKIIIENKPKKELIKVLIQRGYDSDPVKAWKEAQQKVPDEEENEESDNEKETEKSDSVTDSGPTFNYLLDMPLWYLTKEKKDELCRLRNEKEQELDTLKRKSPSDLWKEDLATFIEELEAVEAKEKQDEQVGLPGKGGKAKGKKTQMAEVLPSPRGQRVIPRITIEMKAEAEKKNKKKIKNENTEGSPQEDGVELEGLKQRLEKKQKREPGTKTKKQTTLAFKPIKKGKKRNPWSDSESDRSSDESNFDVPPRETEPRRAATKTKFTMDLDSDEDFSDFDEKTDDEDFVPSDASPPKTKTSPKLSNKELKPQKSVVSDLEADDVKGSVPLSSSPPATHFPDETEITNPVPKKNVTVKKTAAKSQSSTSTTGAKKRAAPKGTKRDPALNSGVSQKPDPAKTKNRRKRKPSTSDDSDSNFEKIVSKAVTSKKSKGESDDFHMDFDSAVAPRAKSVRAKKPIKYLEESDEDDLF

Chain of DNA topoisomerase 2-beta (Q02880 whole entry): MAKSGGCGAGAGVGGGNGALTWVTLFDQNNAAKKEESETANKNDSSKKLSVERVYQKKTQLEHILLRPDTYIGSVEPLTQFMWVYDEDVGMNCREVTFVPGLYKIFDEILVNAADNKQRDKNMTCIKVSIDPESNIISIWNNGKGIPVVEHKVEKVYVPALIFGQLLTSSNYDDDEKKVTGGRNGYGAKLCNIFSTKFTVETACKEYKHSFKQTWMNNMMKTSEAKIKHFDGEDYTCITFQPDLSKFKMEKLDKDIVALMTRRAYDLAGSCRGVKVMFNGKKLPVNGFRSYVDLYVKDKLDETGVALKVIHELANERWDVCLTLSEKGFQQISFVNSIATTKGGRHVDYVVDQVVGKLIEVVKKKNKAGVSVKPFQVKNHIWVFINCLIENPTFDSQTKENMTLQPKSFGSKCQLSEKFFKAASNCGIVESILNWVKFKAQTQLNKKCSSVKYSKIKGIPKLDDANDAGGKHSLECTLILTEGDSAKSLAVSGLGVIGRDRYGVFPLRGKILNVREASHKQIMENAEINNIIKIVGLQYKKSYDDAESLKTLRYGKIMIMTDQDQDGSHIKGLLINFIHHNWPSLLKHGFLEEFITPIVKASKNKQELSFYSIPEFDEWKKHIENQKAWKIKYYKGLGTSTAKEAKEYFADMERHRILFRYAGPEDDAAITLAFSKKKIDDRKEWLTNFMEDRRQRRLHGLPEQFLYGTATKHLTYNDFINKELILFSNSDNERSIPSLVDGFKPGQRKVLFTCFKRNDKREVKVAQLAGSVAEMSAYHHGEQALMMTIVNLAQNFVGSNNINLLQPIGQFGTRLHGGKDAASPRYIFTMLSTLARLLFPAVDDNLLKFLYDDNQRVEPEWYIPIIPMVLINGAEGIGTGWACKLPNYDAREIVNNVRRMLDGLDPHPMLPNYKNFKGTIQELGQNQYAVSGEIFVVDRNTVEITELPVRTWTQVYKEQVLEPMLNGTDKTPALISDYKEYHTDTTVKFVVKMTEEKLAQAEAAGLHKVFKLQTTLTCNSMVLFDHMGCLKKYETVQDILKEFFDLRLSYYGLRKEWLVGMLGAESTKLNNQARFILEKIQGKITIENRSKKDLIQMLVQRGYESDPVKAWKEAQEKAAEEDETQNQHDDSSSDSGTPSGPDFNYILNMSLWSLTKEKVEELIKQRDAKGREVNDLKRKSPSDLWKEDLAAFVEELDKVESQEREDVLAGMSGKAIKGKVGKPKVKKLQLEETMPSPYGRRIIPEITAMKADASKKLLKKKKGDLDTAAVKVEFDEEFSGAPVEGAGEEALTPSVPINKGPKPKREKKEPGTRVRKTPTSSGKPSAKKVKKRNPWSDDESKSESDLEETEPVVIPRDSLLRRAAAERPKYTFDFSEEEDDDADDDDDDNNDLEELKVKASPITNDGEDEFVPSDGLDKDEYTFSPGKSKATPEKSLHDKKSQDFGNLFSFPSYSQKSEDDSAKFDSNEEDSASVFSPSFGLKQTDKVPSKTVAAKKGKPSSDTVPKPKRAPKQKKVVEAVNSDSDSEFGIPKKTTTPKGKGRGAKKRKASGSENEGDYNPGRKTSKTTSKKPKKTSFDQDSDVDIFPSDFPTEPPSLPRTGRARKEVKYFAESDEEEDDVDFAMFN

| Structure (SMILES) | IC50 (MDA-MB-231) [µM] | IC50 (MCF7) [µM] | other results |
| --- | --- | --- | --- |
| Fc1ccc(Nc2nnc(-c3ccc(Cl)cc3Cl)s2)cc1 | 130 | 160 |  |
| CN(C)CCCNc1ccc(NCCCN(C)C)c2c1C(=O)c1ccc(C(=O)Nc3ccc(S(C)(=O)=O)cc3)cc1C2=O |  |  | IC50 (DNA topoisomerase 2-beta): 4.34 to 6.71 µM |
| Fc1ccc(Nc2nnc(COc3ccc(Cl)cc3Cl)s2)cc1 | > 200 | > 200 |  |
| Cn1c(CCCC(=O)O)nc2cc(N(CCCl)CCCl)ccc21 [BENDAMUSTINE] |  |  | GI50 [1]: 70 µM |
| O=C(O)c1ccc(Nc2ncnc3nc[nH]c23)cc1 |  |  | IC50 [2]: 44 µM |
| Clc1ccc(OCc2nnc(Nc3ccc(Br)cc3)s2)c(Cl)c1 | > 200 | > 200 |  |
| O=C1c2ccccc2C(=O)c2c(NCCNCCO)ccc(NCCNCCO)c21 [AMETANTRONE] |  |  | IC50 (DNA topoisomerase 2-beta): 0.03 to 0.99 µM |
| O=C(O)c1cccc(Nc2ncnc3[nH]cnc23)c1 |  |  | IC50 [2]: 65 µM |
| Clc1ccc(-c2nnc(Nc3ccc(Br)cc3)s2)c(Cl)c1 | 70 | 120 |  |
| COc1cc(S(C)(=O)=O)ccc1NC(=O)c1ccc2c(c1)C(=O)c1c(NCCCN(C)C)ccc(NCCCN(C)C)c1C2=O |  |  | IC50 (DNA topoisomerase 2-beta): 1.06 to 3.33 µM |
| Fc1cccc(Nc2nnc(-c3cccc(Cl)c3)s2)c1 | > 200 | > 200 |  |
| Oc1cccc(-c2nnc(Nc3cccc(F)c3)s2)c1 | 170 | 140 |  |
| N[C@@H](Cc1ccc(N(CCCl)CCCl)cc1)C(=O)O |  |  | GI50 [1]: 29 µM |
| COc1cc([C@@H]2c3cc4c(cc3[C@@H](O[C@@H]3O[C@@H]5CO[C@@H](C)O[C@H]5[C@H](O)[C@H]3O)[C@H]3COC(=O)[C@H]23)OCO4)cc(OC)c1O [ETOPOSIDE] |  |  | GI50 [1]: 12 µM |
| CN(C)CCNc1ccc(NCCN(C)C)c2c1C(=O)c1ccc(C(=O)Nc3ccc(S(C)(=O)=O)cc3)cc1C2=O |  |  | IC50 (DNA topoisomerase 2-beta): 5.25 to 9.31 µM |
| O=C(O)CCCc1ccc(N(CCCl)CCCl)cc1 [CHLORAMBUCIL] |  |  | GI50 [1]: 60 µM |
